The subject of test [1] is Porcine LLC-PK1 cells (kidney proximal tubule cell line). Description: Cold-induced cell death (cold storage), MTS viability assay. It is filed as cell-based. Conditions: 0.01-50.00 μM, 24 hours at 4° C., FIGS. 16a, 16b. As for the experimental part: At it was previously shown (Ahlenstiel et al. Transplantation […], 81(2), 231-239), cold storage induces a cell-death process. Porcine LLC-PK1 cells (kidney proximal tubule cell line) were stored at approximately 4° C. during 24 hours with or without the tested molecules. […] Cells were then incubated at 37° C., 5% CO2 before performing MTS viability assay. Cell viability was monitored using CellTiter 96® AQueous Non-Radioactive Cell Proliferation Assay (Promega, Fitchburg, WI, USA), based on the water-soluble tetrazolium compound MTS (3-[4,5-dimethylthiazol-2-yl]-5-[3-carboxymethoxy-phenyl]-2-[4-sulfophenyl]-2H-tetrazolium, inner salt) according to the manufacturers instructions.
For orientation: Tetrazolium dyes change colour on reduction, which living cells bring about.

In test [2] the test system is rat embryonic myoblastic H9C2 cells. Kind of test: H2O2-induced necrosis, LDH release assay. It is filed as cell-based. As to conditions: 10 μM, 2 hours pretreatment, 800 μM H2O2 for 24 hours, FIG. 17. As to the method: The rat embryonic myoblastic H9C2 cells were cultured at 10,000 cells/well in 96-well-plates for 24 hours at 37° C./5% CO2. […] LB corresponds to cells treated with a lysis buffer (100% of cell death). Cell cytotoxicity was determined by a colorimetric assay quantitatively measuring lactate dehydrogenase (LDH) released […].
(LDH in the medium is a marker of cell lysis.)

Test [3] concerns Human retinal pigment epithelial cell line, ARPE-19. As to conditions: 200 μM, Hanus et al. 2016; cited from earlier work.

Here are results for two compounds from US11819492B2, “Natural product derivatives for inhibiting cellular necroptosis, ferroptosis and oxytosis” (Institut National de la Sante et de la Recherche Medicale …, priority 2016, dated 2023).

For `CN1C(=O)NC(Cc2c[nH]c3c(Cl)cccc23)C1=O` (stereo not drawn) [Nec-1s, Necrostatin-1s, reference compound], in test [1], the “protection from death induced by cold storage” value was “inactive”. Moreover, the “protection from death induced by H2O2 (LDH release)” value in test [2] is reported as “less effective”.

Take `CN1C(=O)C(Cc2c[nH]c3ccccc23)NC1=S` (stereo not drawn) [necrostatin-1]: the “inhibition of NaIO3-induced necroptosis in retinal pigment epithelial cell line” value in test [3] is on record as “inhibited”.
